Entries after “also recorded” stand apart in the source; their conditions may differ.
Test system: βL-crystallin
Test: Dynamic light scattering of βL-crystallin solutions with added agents (aggregate size, hydrodynamic radius)
Assay type: biochemical, bovine
Conditions: for Effect on βL-crystallin aggregate size / de-clumping: SDS 0.1 mg/mL (below CMC), 0.2 mg/mL βL-crystallin in water, sulfate
Protocol: βL-crystallin (C5163 Sigma-Aldrich) and α-crystallin (C4163 Sigma-Aldrich) from a bovine eye lens were stored in a biological freezer. The four stock solutions prepared for these experiments were 2 mg/mL βL-crystallin in water, 2 mg/mL βL-crystallin in PBS, 2 mg/mL α-crystallin in water, and 0.15M NaCl in water. All water used in these experiments was filtered and deionized. A stock solution of 2 mg/mL βL-crystallin in water was prepared by mixing 10 mg of βL-crystallin with 5 mL water in a decontaminated 20 mL scintillation vial. A similar procedure was followed to prepare 2 mg/mL α-crystallin in water and 2 mg/mL βL-crystallin in PBS.
A dilution of these stock solutions was used to create 2 mL samples of 0.2 mg/mL βL-crystallin in water, 0.2 mg/mL α-crystallin in water, 0.2 mg/mL βL-crystallin, 0.15M NaCl in water, 0.2 mg/mL βL-crystallin, 0.6 mg/mL α-crystallin in water, and 0.2 mg/mL βL-crystallin in PBS.
An ALV instrument with an Ar laser (λ=514.5 nm) was used to collect DLS data from 35°-65° in 5° increments and from 70°-90° in 10° increments. An ALV5000 correlator was used to analyze the data. Glass DLS tubes (4 mL) were sonicated in an extremely dilute solution of Micro-90 for 1 hour and then rinsed with filtered deionized water eight times followed by acetone eight times. The concentration of crystallins in the lens is typically very high. However, dilute solutions of the crystallins are required for DLS characterization, as set forth by limitations imposed by the Zimm regime.
The hydrodynamic radius, Rh, can be determined using the Stokes-Einstein equation,
As mentioned earlier, α-crystallin acts as a chaperone protein in the lens as it either diminishes or inhibits aggregation. In order to determine the impact of α-crystallin and its chaperone abilities on βL-crystallin, a solution of 0.2 mg/mL βL-crystallin, 0.6 mg/mL α-crystallin in water at 23° C. was prepared for DLS. […] The addition of the chaperone was thereby seen to remove the aggregate.
In order to determine if the aggregation of the crystallins is electrostatic in nature, dynamic light scattering was accomplished on 0.2 mg/mL βL-crystallin in a 0.15M NaCl water solution, (FIG. 8).
The effect of SDS, sodium dodecyl sulfate (purchased from Sigma Aldrich) a […] surfactant on βL-crystallin deaggregation was studied as in Example 4. The CMC for SDS is 2.36 mg/ml, so the SDS concentration was maintained below that value.

[1] = 0.2 mg/mL βL-crystallin, 0.15M NaCl in water

| Structure (SMILES) | Rh of βL-crystallin aggregate (slow mode) after addition of the salt (0.2 mg/mL βL-crystallin in 0.15M NaCl water solution, without salt 230 nm) | Effect of salt on fast mode (unaggregated βL-crystallin) [1] | Reduction in aggregate Rh upon addition of NaCl [1] | Effect on βL-crystallin aggregate size (about 0.15 M NaCl) | Effect on βL-crystallin aggregate size / de-clumping (listed as sodium dodecyl sulfate) | Effect on βL-crystallin aggregate size / de-clumping |
| --- | --- | --- | --- | --- | --- | --- |
| [Cl-].[Na+] [NaCl] | 120 nm | not significantly affected | two-fold reduction | decreases βL-crystallin aggregate size | – | – |
| CCCCCCCCCCCCOS(=O)(=O)[O-].[Na+] [SDS, sodium dodecyl sulfate, reference compound] | – | – | – | – | no effect; also recorded: does not reduce βL-crystallin aggregate sizes | did not stimulate de-clumping |

— patent US8758802B2, “Methods of inhibiting cataracts and presbyopia” (University of Massachusetts, priority 2009, dated 2014)
